In US20220251074A1, “HERBICIDAL AMIDES” (BASF SE, priority 2019, published 2022):

Legend:
[1] = tested on: ABUTH; experiment: greenhouse post-emergence herbicidal test; format: in vivo, Abutilon theophrasti; settings: post-emergence method, application rate 500 g/ha, scale from 0 to 100
From the text: (§1) The culture containers used were plastic flowerpots containing loamy sand with approximately 3.0% of humus as the substrate. The seeds of the test plants were sown separately for each species.
(§2) For the post-emergence treatment, the test plants were first grown to a height of 3 to 15 cm, depending on the plant habit, and only then treated with the active ingredients which had been suspended or emulsified in water. For this purpose, the test plants were either sown directly and grown in the same containers, or they were first grown separately as seedlings and transplanted into the test containers a few days prior to treatment.
(§3) Depending on the species, the plants were kept at 10-25° C. or 20-35° C., respectively. The test period extended over 2 to 4 weeks. During this time, the plants were tended, and their response to the individual treatments was evaluated.
(§4) Evaluation was carried out using a scale from 0 to 100. 100 means no emergence of the plants, or complete destruction of at least the aerial moieties, and 0 means no damage, or normal course of growth. A good herbicidal activity is given at values of at least 80 and a very good herbicidal activity is given at values of at least 90.
(§5) The plants used in the greenhouse experiments were of the following species: […]

[2] = tested on: ECHCG; experiment: greenhouse post-emergence herbicidal test; format: in vivo, Echinocloa crus-galli; settings: post-emergence method, application rate 500 g/ha, scale from 0 to 100
From the text: as §1, §2, §3, §4, §5

[3] = tested on: SETVI; experiment: greenhouse post-emergence herbicidal test; format: in vivo, Setaria viridis; settings: application rate 500 g/ha, scale from 0 to 100; for herbicidal activity against SETVI: post-emergence method; for damages, unwanted plants SETVI: post-emergence application, greenhouse
From the text: as §1, §2, §3, §4, §5

[4] = tested on: AMARE; experiment: greenhouse post-emergence herbicidal test; format: in vivo, Amaranthus retroflexus; settings: post-emergence method, application rate 500 g/ha, scale from 0 to 100
From the text: as §1, §2, §3, §4, §5

[5] = tested on: SETFA; experiment: greenhouse pre-emergence herbicidal test; format: in vivo, Setaria faberi; settings: pre-emergence method, application rate 500 g/ha, scale from 0 to 100
From the text: as §1
(§6) For the pre-emergence treatment, the active ingredients, which had been suspended or emulsified in water, were applied directly after sowing by means of finely distributing nozzles. The containers were irrigated gently to promote germination and growth and subsequently covered with transparent plastic hoods until the plants had rooted. This cover caused uniform germination of the test plants, unless this had been impaired by the active ingredients.
as §3, §4, §5

[6] = tested on: AVEFA; experiment: greenhouse post-emergence herbicidal test; format: in vivo, Avena fatua; settings: application rate 500 g/ha, scale from 0 to 100; for damages, unwanted plants AVEFA: post-emergence application, greenhouse
From the text: as §1, §2, §3, §4, §5

[7] = tested on: CHEAL; experiment: greenhouse post-emergence herbicidal test; format: in vivo, Chenopodium album; settings: post-emergence application, application rate 8 g/ha, scale from 0 to 100
From the text: as §1, §2, §3, §4, §5

[8] = tested on: RAPRA; experiment: greenhouse post-emergence herbicidal test; format: in vivo, Raphanus raphanistrum; settings: post-emergence application, application rate 8 g/ha, scale from 0 to 100
From the text: as §1, §2, §3, §4, §5

[9] = tested on: SEBEX; experiment: greenhouse post-emergence herbicidal test; format: in vivo, Sesbania exaltata; settings: post-emergence application, application rate 8 g/ha, scale from 0 to 100
From the text: as §1, §2, §3, §4, §5

[10] = tested on: ALOMY; experiment: greenhouse post-emergence herbicidal test; format: in vivo, Alopercurus myosuroides; settings: post-emergence application, application rate 500 g/ha, scale from 0 to 100
From the text: as §1, §2, §3, §4, §5

[11] = tested on: AMARE; experiment: greenhouse pre-emergence herbicidal test; format: in vivo, Amaranthus retroflexus; settings: pre-emergence method, application rate 500 g/ha, scale from 0 to 100
From the text: as §1, §6, §3, §4, §5

SMILES: C/C(=C\C(=O)N1CCSC1=O)C[C@@H]1OC[C@H](C[C@@H]2O[C@H]2[C@@H](C)[C@H](C)O)[C@@H](O)[C@H]1O [compound 37]
- herbicidal activity against ABUTH [1]: very good herbicidal activity (a very good herbicidal activity is given at values of at least 90)
- herbicidal activity against ECHCG [2]: good herbicidal activity (A good herbicidal activity is given at values of at least 80)
- herbicidal activity against SETVI [3]: very good herbicidal activity (a very good herbicidal activity is given at values of at least 90)
- herbicidal activity against AMARE [4]: good herbicidal activity (A good herbicidal activity is given at values of at least 80)

SMILES: CC(=CC(=O)N1CCSC1=O)CC1OCC(CC2OC2C(C)C(C)O)C2OC(C)(C)OC12 (stereo not shown) [compound 39]
- herbicidal activity against ABUTH [1]: very good herbicidal activity (a very good herbicidal activity is given at values of at least 90)
- herbicidal activity against SETVI [3]: very good herbicidal activity (a very good herbicidal activity is given at values of at least 90)

SMILES: CC(=CC(=O)NCC(F)(F)C(F)(F)C(F)(F)F)CC1OCC(CC2OC2C(C)C(C)O)C2OC(C)(C)OC12 (stereo not shown) [compound 19]
- herbicidal activity against AMARE [4]: very good herbicidal activity (a very good herbicidal activity is given at values of at least 90)

SMILES: C/C(=C\C(=O)NCC#CC(C)(C)C)C[C@@H]1OC[C@H](C[C@@H]2O[C@H]2[C@@H](C)[C@H](C)O)[C@@H](O)[C@H]1O [compound 29]
- herbicidal activity against SETFA [5]: good herbicidal activity (A good herbicidal activity is given at values of at least 80)

SMILES: CC(=O)[C@H](C)[C@@H]1O[C@H]1C[C@H]1CO[C@@H](C/C(C)=C/C(=O)NCC(F)(F)F)[C@H](O)[C@@H]1O [compound 43]
- herbicidal activity against ABUTH [1]: very good herbicidal activity (a very good herbicidal activity is given at values of at least 90)
- herbicidal activity against AVEFA ([6]; post-emergence method): very good herbicidal activity (a very good herbicidal activity is given at values of at least 90)
- herbicidal activity against SETVI [3]: very good herbicidal activity (a very good herbicidal activity is given at values of at least 90)

SMILES: C/C(=C\C(=O)NCC(F)(F)C(F)(F)C(F)(F)F)C[C@@H]1OC[C@H](C[C@@H]2O[C@H]2[C@@H](C)[C@H](C)O)[C@@H](O)[C@H]1O [compound 9]
- herbicidal activity against ECHCG [2]: good herbicidal activity (A good herbicidal activity is given at values of at least 80)
- herbicidal activity against SETVI [3]: very good herbicidal activity (a very good herbicidal activity is given at values of at least 90)
- herbicidal activity against AMARE [4]: very good herbicidal activity (a very good herbicidal activity is given at values of at least 90)

SMILES: C/C(=C\C(=O)NCCO)C[C@@H]1OC[C@H](C[C@@H]2O[C@H]2[C@@H](C)[C@H](C)O)[C@@H](O)[C@H]1O [cmpd 77 (WO 93/19599), reference compound]
- damages, unwanted plants CHEAL [7]: 75
- damages, unwanted plants RAPRA [8]: 85
- damages, unwanted plants SEBEX [9]: 65
- damages, unwanted plants AVEFA [6]: 50
- damages, unwanted plants ALOMY [10]: 70
- damages, unwanted plants SETVI [3]: 85

SMILES: CCOC1OC2C(CC3OC3C(C)C(C)O)COC(CC(C)=CC(=O)NCC(F)(F)F)C2O1 (mixture of isomers) [compound 20]
- herbicidal activity against ABUTH [1]: very good herbicidal activity (a very good herbicidal activity is given at values of at least 90)
- herbicidal activity against ECHCG [2]: very good herbicidal activity (a very good herbicidal activity is given at values of at least 90)
- herbicidal activity against AMARE [4]: very good herbicidal activity (a very good herbicidal activity is given at values of at least 90)

SMILES: C#CCNC(=O)/C=C(\C)C[C@@H]1OC[C@H](C[C@@H]2O[C@H]2[C@@H](C)[C@H](C)O)[C@@H](O)[C@H]1O [compound 26, (E)-4-[(2S,3R,4R,5S)-3,4-dihydroxy-5-[[(2S,3S)-3-[(1S,2S)-2-hydroxy-1-methyl-propyl]oxiran-2-yl]methyl]tetrahydropyran-2-yl]-3-methyl-N-prop-2-ynyl-but-2-enamide]
- damages, unwanted plants CHEAL [7]: 100
- damages, unwanted plants RAPRA [8]: 100
- damages, unwanted plants SEBEX [9]: 100
- damages, unwanted plants AVEFA [6]: 98
- damages, unwanted plants ALOMY [10]: 95
- damages, unwanted plants SETVI [3]: 100

SMILES: C/C(=C\C(=O)NCCF)C[C@@H]1OC[C@H](C[C@@H]2O[C@H]2[C@@H](C)[C@H](C)O)[C@@H](O)[C@H]1O [compound 1]
- damages, unwanted plants CHEAL [7]: 100
- damages, unwanted plants RAPRA [8]: 100
- damages, unwanted plants ALOMY [10]: 100
- damages, unwanted plants SETVI [3]: 100

SMILES: C#CCNC(=O)C=C(C)CC1OCC(CC2OC2C(C)C(C)O)C2OC(OCC)OC12 (stereo not shown) [compound 33]
- herbicidal activity against AMARE [11]: good herbicidal activity (A good herbicidal activity is given at values of at least 80)
